15 compounds from ChEMBL document CHEMBL1140515, “Virtual screening and bioassay study of novel inhibitors for dengue virus mRNA cap (nucleoside-2'O)-methyltransferase” (Bioorg Med Chem, 2007) can be followed below.

SMILES strings stand for the structures.

Tested on in the first assay: not listed separately
Nature of the assay: Inhibition of Dengue virus NS5MTase assessed as methylation of 7MeGpppAC5.
By IC50 is commonly meant the concentration that gives 50% inhibition. In the case of `Cc1ccc(C23CC4CC(CC(NC(=O)N[C@@H](Cc5ccccc5)C(=O)O)(C4)C2)C3)cc1`, the half-maximal inhibitory concentration (IC50) worked out at 60.5 µM.

A further assay has as its system Dengue virus. Nature of the assay: Inhibition of Dengue virus NS5MTase assessed as methylation of 7MeGpppAC5 at 100 uM.
Usually inhibition stands for how much of the control response was suppressed. Take `CN(C)S(=O)(=O)c1ccc(Cl)c(NC(=O)COC(=O)CNC(=O)CC23CC4CC(CC(C4)C2)C3)c1`: the inhibition came out at 5%.

`O=C(N[C@@H](Cc1ccccc1)C(=O)O)c1ccc(C(=O)N[C@H](Cc2ccccc2)C(=O)O)cc1`: the inhibition worked out at 5%.

Turning to `C[n+]1cn(CCCCCCn2cc([C@@H](O)c3ccccc3)[n+](C)c2)cc1[C@@H](O)c1ccccc1`, the inhibition is 5%.

As for `CCOC(=O)Cn1c(=O)n(C[C@H]2CC[C@H](C(=O)NCCc3ccccc3)CC2)c(=O)c2ccccc21`, the inhibition was found to be 5%.

Take `Cc1cc2oc(=O)cc(COC(=O)CN3C(=O)N[C@]4(C[C@H](C)CC(C)(C)C4)C3=O)c2cc1C(C)C`: the inhibition is 5%.

As for `CC[C@@H](C)[C@H](NS(=O)(=O)c1ccc(C)cc1)C(=O)Oc1ccc2c(c1)oc(=O)c1cc(OC)ccc12`, the inhibition was 5%.

`N[C@H](C(=O)O)[C@@H](O)c1ccc(OCc2ccccc2)c(OCc2ccccc2)c1`: the inhibition stood at 5%.

As for `CC[C@@H](C)[C@H](NS(=O)(=O)c1ccc(C)cc1)C(=O)Oc1cc2oc(=O)cc(-c3ccccc3)c2cc1Cl`, the inhibition came to 5%.

For the compound `CC(C)[C@@H](N)C(=O)NC[C@H]1CC[C@@H](C(=O)N[C@@H](Cc2ccccc2)C(=O)O)CC1`, the inhibition came to 5%.

Regarding `CC[C@@H](C)[C@H](NS(=O)(=O)c1ccc(C)cc1)C(=O)Oc1ccc2c(-c3ccc(OC)cc3)cc(=O)oc2c1`, the inhibition worked out at 5%.

For the compound `O=C(O)[C@H]1CCCC[C@@H]1C(=O)N[C@H]1CCCC[C@@H]1NC(=O)[C@@H]1CCCC[C@H]1C(=O)O`, the inhibition is 5%.

As to `O=C(Oc1cccc(NC2=NS(=O)(=O)c3ccccc32)c1)c1ccc(S(=O)(=O)N2CCCCC2)cc1`, the inhibition was found to be 5%.

Turning to `Cc1ccc(C23CC4CC(CC(NC(=O)N[C@@H](Cc5ccccc5)C(=O)O)(C4)C2)C3)cc1`, the inhibition came out at 75%.

Consider `Cc1ccc(S(=O)(=O)N2CCCCC2)cc1NC(=O)COC(=O)CN1C(=O)N[C@@]2(C[C@H](C)CC(C)(C)C2)C1=O`, for which the inhibition amounted to 5%.

Regarding `COC(=O)[C@@H](Cc1ccccc1)NC(=O)NC12CC3CC(C1)CC(c1ccc(C)cc1)(C3)C2`, the inhibition was 5%.
